Laboratory results: ChEMBL document CHEMBL1201862, “PubChem BioAssay data set” (2004)
Calls of active or inactive are those of the source.

Assays:
[1] = target: FAD-linked sulfhydryl oxidase ALR (Homo sapiens, UniProt P55789); assay: ALR-catalysed DTT oxidation blockers – biochemical, H2O2 detection, luminescence, cherry-pick, dose response (AID 493248)
[2] = target: Paired box protein Pax-8 (Homo sapiens, UniProt Q06710); assay: PAX8 transcriptional activity inhibition in RMG-I – RMG-I cells, luciferase, cherry-pick, dose response (AID 687027); assay type: functional, cell-based;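 also: luciferase reporter driven by Pax8 target thyroperoxidase promoter measured by SteadyGlo luminescence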
Sequence of Paired box protein Pax-8 (Q06710 whole entry): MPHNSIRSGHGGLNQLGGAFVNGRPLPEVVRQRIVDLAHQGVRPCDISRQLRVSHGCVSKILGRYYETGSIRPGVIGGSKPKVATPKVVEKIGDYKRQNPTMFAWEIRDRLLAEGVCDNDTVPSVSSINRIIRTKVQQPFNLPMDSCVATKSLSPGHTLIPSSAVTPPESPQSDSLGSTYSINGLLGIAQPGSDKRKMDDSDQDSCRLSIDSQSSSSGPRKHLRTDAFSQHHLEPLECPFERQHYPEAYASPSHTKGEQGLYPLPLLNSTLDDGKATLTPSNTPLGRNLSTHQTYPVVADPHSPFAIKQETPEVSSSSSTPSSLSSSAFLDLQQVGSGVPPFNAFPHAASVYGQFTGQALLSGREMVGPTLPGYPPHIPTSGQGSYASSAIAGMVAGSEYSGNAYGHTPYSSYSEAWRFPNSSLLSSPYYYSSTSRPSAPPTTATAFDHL

[3] = target: T1, Polyadenylate-binding protein 1 (Homo sapiens, UniProt P11940); assay: MLLE binding blockers, Cy5 peptide tracer – biochemical, fluorescence polarization, Cy5-PAM2 peptide, secondary, miRNA deadenylation inhibitor project, dose response (AID 602260); assay type: functional; conditions: read-out: IC50_Mean
T1 sequence (P11940 whole entry, the tested form may be a part): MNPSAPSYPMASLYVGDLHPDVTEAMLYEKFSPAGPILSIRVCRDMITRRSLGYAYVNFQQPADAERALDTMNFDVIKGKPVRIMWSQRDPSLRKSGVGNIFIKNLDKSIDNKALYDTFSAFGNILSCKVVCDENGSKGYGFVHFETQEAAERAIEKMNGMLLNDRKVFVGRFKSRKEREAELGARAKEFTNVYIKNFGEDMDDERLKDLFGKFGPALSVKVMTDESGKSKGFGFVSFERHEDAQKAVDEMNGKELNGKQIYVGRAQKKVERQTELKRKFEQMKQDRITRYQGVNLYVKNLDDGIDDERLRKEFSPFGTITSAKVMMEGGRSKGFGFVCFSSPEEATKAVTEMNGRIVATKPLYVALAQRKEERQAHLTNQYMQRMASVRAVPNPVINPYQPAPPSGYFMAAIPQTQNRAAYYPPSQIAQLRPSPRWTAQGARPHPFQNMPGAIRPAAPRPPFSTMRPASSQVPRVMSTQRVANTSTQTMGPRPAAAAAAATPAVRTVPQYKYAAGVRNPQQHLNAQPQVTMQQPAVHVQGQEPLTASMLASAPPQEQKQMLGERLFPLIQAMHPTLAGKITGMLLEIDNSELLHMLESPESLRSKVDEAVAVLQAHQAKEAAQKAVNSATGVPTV

[4] = target: T1, Polyadenylate-binding protein 1; assay: MLLE domain peptide-binding blockers, IC50 – biochemical, fluorescence polarization, FITC-PAM2 peptide, dose response (AID 602259); assay type: functional; conditions: read-out: IC50_Mean
[5] = target: T2, Corticotropin-releasing factor receptor 2/Corticotropin-releasing factor-binding protein (Homo sapiens, UniProt P24387+Q13324); assay: activators of CRF receptor 2 with binding protein – uHTS hits, confirmation (AID 602473); assay type: functional; conditions: read-out: EC50_Mean
T2 sequence (Q13324 whole entry): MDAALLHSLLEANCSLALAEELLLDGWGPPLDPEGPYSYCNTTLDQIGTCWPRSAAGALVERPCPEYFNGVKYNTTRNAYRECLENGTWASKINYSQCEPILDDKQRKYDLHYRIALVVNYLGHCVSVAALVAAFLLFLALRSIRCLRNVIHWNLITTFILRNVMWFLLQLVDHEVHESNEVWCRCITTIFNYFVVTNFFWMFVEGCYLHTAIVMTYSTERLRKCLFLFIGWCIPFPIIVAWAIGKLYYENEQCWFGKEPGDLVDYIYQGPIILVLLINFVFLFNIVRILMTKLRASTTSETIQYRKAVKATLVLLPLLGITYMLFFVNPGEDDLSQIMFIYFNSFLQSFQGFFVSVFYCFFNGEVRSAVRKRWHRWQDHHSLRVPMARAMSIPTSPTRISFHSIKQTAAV
T2 sequence (P24387 whole entry): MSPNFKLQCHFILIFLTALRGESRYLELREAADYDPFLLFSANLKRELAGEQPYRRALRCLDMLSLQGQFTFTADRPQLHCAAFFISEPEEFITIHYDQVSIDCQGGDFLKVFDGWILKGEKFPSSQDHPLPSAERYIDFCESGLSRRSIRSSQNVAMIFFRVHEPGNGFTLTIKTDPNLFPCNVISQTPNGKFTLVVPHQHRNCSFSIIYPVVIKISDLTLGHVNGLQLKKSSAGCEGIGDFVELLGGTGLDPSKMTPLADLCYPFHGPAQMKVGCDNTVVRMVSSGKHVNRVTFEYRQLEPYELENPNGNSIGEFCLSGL

[6] = test system: H4; assay: Luminescence Cell-Based Dose Response HTS to Identify Activators of 5'UTR Stem-Loop Driven Prion Protein mRNA Translation in H4 Neuroglioblastoma Cells. [Related pubchem assays: 1829 (Project Summary), 1814 (Primary HTS)]; assay type: functional; conditions: Homo sapiens
[7] = Luminescence Cell-Based Dose Response HTS to Identify Activators of Luciferase Translation or Activity in H4 […] Cells. [Related pubchem assays: 1829 (Project Summary), 1814 (Primary HTS)]; assay type: functional
[8] = target: Induced myeloid leukemia cell differentiation protein Mcl-1 (Homo sapiens, UniProt Q07820); assay type: functional
Sequence of Induced myeloid leukemia cell differentiation protein Mcl-1 (Q07820 whole entry): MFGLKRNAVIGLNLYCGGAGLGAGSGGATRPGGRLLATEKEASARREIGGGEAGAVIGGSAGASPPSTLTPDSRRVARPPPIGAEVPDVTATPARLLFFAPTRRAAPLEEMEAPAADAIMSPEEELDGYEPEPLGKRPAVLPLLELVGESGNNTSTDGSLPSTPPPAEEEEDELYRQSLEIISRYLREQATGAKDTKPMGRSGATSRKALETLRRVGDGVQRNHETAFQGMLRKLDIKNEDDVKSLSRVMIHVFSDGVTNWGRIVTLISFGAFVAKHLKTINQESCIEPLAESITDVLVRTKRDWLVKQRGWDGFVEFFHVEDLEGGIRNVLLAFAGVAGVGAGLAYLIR

[9] = target: T3, Leucine aminopeptidase (Plasmodium falciparum 3D7, UniProt Q8IL11); assay: P. falciparum M17LAP inhibitors, primary screen, biochemical, fluorogenic H-Leu-NHMec substrate, 1536-well (AID 1619); assay type: functional
T3 sequence (Q8IL11 whole entry): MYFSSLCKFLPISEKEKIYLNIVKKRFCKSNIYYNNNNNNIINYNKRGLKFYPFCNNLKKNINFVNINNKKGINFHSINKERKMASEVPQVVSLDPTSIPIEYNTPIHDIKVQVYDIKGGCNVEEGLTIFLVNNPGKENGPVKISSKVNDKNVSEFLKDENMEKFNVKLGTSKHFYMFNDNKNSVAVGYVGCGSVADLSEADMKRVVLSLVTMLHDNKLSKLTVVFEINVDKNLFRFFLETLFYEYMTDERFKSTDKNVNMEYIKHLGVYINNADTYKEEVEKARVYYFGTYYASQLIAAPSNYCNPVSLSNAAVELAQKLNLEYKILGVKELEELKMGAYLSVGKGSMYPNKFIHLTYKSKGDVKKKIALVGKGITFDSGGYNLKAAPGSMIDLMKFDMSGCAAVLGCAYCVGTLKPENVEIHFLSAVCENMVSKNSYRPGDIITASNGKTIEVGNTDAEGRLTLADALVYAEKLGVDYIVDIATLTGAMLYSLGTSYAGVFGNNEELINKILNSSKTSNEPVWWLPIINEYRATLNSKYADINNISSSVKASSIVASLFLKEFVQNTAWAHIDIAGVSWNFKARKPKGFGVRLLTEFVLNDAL

[10] = target: T4, RNA-binding protein pos-1 (Caenorhabditis elegans, UniProt G5EF15); assay: disruptors of C. elegans POS-1 RNA interaction – biochemical, fluorescence polarization, dose response (AID 1964);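 also: purified POS-1 fused to maltose binding protein made in E. coli; potency of compounds blocking POS-1 binding to fluorescent RNA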
T4 sequence (G5EF15 whole entry): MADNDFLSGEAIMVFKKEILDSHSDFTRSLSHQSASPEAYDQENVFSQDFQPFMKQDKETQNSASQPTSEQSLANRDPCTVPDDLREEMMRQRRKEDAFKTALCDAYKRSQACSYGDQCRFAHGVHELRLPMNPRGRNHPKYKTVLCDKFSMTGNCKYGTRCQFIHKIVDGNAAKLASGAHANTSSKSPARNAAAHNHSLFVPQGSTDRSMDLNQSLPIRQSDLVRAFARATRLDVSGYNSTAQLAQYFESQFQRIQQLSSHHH

[11] = target: T5, Zinc finger protein mex-5 (Caenorhabditis elegans, UniProt Q9XUB2); assay: potency of MEX-5 RNA-binding blockers – biochemical, C. elegans, fluorescence polarization, dose response (AID 1960)
T5 sequence (Q9XUB2 whole entry): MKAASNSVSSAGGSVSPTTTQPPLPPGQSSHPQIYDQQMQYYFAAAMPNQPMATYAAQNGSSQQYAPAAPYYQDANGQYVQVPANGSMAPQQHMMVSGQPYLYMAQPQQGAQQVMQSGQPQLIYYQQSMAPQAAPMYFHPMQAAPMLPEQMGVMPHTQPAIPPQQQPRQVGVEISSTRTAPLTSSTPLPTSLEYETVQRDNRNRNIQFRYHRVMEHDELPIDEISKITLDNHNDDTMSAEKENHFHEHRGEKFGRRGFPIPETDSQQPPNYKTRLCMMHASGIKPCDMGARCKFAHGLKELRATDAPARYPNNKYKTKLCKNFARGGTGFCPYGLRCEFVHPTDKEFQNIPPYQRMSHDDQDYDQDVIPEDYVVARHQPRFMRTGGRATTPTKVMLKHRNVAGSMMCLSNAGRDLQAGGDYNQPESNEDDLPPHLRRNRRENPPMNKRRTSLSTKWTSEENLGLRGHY

[12] = test system: BJ; assay: cells; assay type: functional, cell-based; conditions: Homo sapiens
[13] = test system: BJ; assay: BJ-TERT-LT-ST fibroblast viability loss – cell-based, RAS-independent, luminescence, dose response (AID 1935); assay type: functional; conditions: Homo sapiens;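 also: BJ fibroblasts immortalized with TERT plus LT and ST oncogenes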
[14] = DRD fibroblast viability loss – cell-based, non-viral oncogenic, luminescence, dose response (AID 1934); assay type: functional; conditions: Homo sapiens
[15] = test system: BJ; assay: BJ-TERT fibroblast viability loss – cell-based, RAS-independent, luminescence, dose response (AID 1933); assay type: functional; conditions: Homo sapiens
[16] = luciferase reporter signal suppression in cells – H4 neuroglioma cells, luminescence, dose response (AID 1990); assay type: functional, cell-based
[17] = Luminescence Cell-Based Dose Response HTS to Identify Inhibitors of 5'UTR Stem-Loop Driven Prion Protein mRNA Translation in H4 Neuroglioblastoma Cells. [Related pubchem assays: 1827 (Project Summary), 1813 (Primary HTS)]; assay type: functional
[18] = NIH-3T3 fibroblast cytotoxicity, dose response, cytotoxicity control, cell-based, fluorescence, Alamar Blue, secondary assay (AID 2327); assay type: functional;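 also: NIH-3T3 mouse fibroblasts cultured with fluconazole at 8 µg/mL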
[19] = test system: INS1; assay: INS-1E survival protection against cytokine death – cell-based, luminescence, retest, dose response (AID 449756); assay type: functional; conditions: Rattus norvegicus;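 also: cell death triggered by IL-1 beta plus TNF-alpha plus IFN-gamma mixture; protective hits raise ATP signal compared with cytokine alone wells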
[20] = alpha-synuclein stem-loop luciferase translation blockers – H4 neuroglioma cells, luminescence, confirmation (AID 1988); assay type: functional, cell-based
[21] = fluconazole-exposed Candida albicans growth modulators – fluorescence, retest, confirmation (AID 2467); assay type: functional, cell-based
[22] = cells; assay type: functional, cell-based
[23] = cells; assay type: functional, cell-based; remark: listed apart in the source

Sequence of FAD-linked sulfhydryl oxidase ALR (P55789 whole entry): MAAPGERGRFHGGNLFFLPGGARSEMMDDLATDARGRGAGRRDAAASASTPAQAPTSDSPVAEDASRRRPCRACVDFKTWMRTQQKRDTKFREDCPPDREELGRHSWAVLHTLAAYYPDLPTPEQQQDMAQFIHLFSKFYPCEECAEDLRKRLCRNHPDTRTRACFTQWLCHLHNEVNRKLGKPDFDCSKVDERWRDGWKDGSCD

CC(=O)N1CCN=C1SCc1ccccc1F
AC50 [1]: 13.9 µM (active)

CCS(=O)(=O)N1Cc2ccccc2CC1C(=O)N1CCN(c2ccccc2)CC1 (configuration not stated)
AC50 [1]: 12.1 µM (active)

O=C(O)c1ccc(N2C(=O)/C(=C/c3nc4ccccc4[nH]3)SC2=S)cc1
AC50 [1]: 0.009 µM (active)

O=C(NCC(c1cccnc1)N1CCN(c2ccccc2)CC1)OCc1ccccc1 (configuration not stated)
AC50 [1]: 6.15 µM (active)

Cn1c(CCN2CCN(c3ccccn3)CC2)nc2cc(NS(=O)(=O)c3ccc(Cl)cc3)ccc21
AC50 [2]: 8.15 µM (active)

c1csc(-c2nc3ccccn3c2NC2CCCCC2)c1
AC50 [1]: 0.678 µM (active)

O=C(Cc1ccc(Cl)cc1)NC(=S)Nc1ccccc1O
IC50 [3]: > 66 µM (inactive)
IC50 [4]: > 66 µM (inactive)
EC50 [5]: 5.99 µM (active)

CN(C)c1ccc(CNC(=O)c2cc(S(=O)(=O)N3CCCC3)cn2C)cc1
AC50 [1]: 8.78 µM (active)

C[C@@H]1CN([C@@H](C)CO)S(=O)(=O)c2ccc(C#Cc3ccc(F)cc3)cc2O[C@H]1CN(C)C(=O)NC1CCCCC1
AC50 [2]: 7.93 µM (active)

CC(=O)c1sc2nc(-c3cccs3)ccc2c1N
EC50 [6]: 33.2 µM (inconclusive)
EC50 [7]: > 120 µM (not active)
IC50 [8]: 7.08 µM (not active)

O=C(O)C1CC=CCC1C(=O)Nc1ccc2c(c1)OCCO2 (configuration not stated)
IC50 [9]: 13.4 µM (active)

COc1ccc(C2C(C(=O)c3ccco3)=C(O)C(=O)N2c2nnc(C)s2)cc1OC (configuration not stated)
IC50 [3]: > 66 µM (inactive)
IC50 [4]: 50.4 µM (inactive)
EC50 [10]: > 300 µM (not active)
EC50 [11]: 297 µM (active)

COc1ccc(OC)c(C(=O)N2CCCC(Nc3ccc(F)cc3)C2)c1 (configuration not stated)
AC50 [1]: 1.92 µM (active)

CCCOc1ccc(NC(=O)C2CC(=O)N(C(C)C)C2)cc1 (configuration not stated)
IC50 [9]: 99.7 µM (active)

Cn1c(=O)c(C(=O)COC(=O)c2cc(-c3ccco3)nc3ccccc23)c(N)n(CC2CC2)c1=O
IC50 [8]: 1.99 µM (active)

Cc1ccc(C(=O)Nc2nc(-c3ccc([N+](=O)[O-])cc3)cs2)o1
AC50 [1]: 0.675 µM (active)

CC(=O)Nc1c(O)nc(SCC(=O)Nc2cccc(C)c2)[nH]c1=O
IC50 [9]: 9.85 µM (active)

CSc1cc(-c2ccccc2)n(Cc2c(Cl)cccc2Cl)c(=O)c1C#N
EC50 [12]: 64.7 µM (inconclusive)
EC50 [13]: 2.86 µM (active)
EC50 [14]: 3.1 µM (active)
EC50 [15]: 5.96 µM (active)

CC1=NNC(=O)C1CC(=O)N/N=C(\C)c1cccs1 (configuration not stated)
IC50 [9]: 3.56 µM (active)

O=C(NC(=S)Nc1ccccc1)c1cncc(C#Cc2ccccc2)c1
IC50 [3]: > 66 µM (inactive)
IC50 [4]: > 66 µM (inactive)

Cc1cc(O)nc(SCC(=O)Nc2ccccc2C#N)c1C#N
IC50 [9]: 13.9 µM (active)

CCOC(=O)CSc1nc2c(sc(=S)n2-c2ccccc2)c(=O)[nH]1
IC50 [9]: 35.6 µM (active)

[O-]c1ccccc1-[n+]1c(-c2ccccc2)cc(-c2ccccc2)cc1-c1ccccc1
EC50 [16]: > 120 µM (not active)
EC50 [12]: 14.2 µM (active)
EC50 [17]: > 120 µM (not active)
EC50 [18]: > 160 µM (inconclusive)
AC50 [19]: 6.35 µM (active)
EC50 [20]: > 120 µM (not active)
EC50 [13]: > 150 µM (inconclusive)
EC50 [14]: 11.4 µM (active)
EC50 [15]: 11.7 µM (active)
EC50 [21]: 0.85 µM (active)

O=C(O)c1ccc(Cn2cnc3cccnc32)cc1
IC50 [3]: > 66 µM (inactive)
IC50 [4]: 55.8 µM (inactive)

Cn1nccc1C(=O)N/N=C/c1c(O)ccc2ccccc12
EC50 [12]: 7.69 µM (active)
AC50 [19]: 0.856 µM (active)
EC50 [22]: 5.93 µM (active)
EC50 [23]: 38.7 µM (active)
EC50 [13]: 4.66 µM (active)
EC50 [14]: 1.59 µM (active)
EC50 [15]: 1.61 µM (active)
